Data set [1] in a line: Inhibition of bovine corpus striatum PDE10A using [3H]cAMP or [3H]cGMP as substrate preincubated for 5 mins followed by substrate addition and measured after 30 mins by liquid scintillation counting method. Also noted: species or system Bos taurus.
Data set [2] is described as follows: Solubility in artificial interstitial fluid at pH 5 by HPLC analysis. In kind it is physicochemical.
For the next data set, the target named is hERG (KCNH2) (Homo sapiens, UniProt Q12809). The data set is described as follows: Inhibition of human ERG at 1 uM relative to control.
Chain of hERG (KCNH2) (Q12809 whole entry): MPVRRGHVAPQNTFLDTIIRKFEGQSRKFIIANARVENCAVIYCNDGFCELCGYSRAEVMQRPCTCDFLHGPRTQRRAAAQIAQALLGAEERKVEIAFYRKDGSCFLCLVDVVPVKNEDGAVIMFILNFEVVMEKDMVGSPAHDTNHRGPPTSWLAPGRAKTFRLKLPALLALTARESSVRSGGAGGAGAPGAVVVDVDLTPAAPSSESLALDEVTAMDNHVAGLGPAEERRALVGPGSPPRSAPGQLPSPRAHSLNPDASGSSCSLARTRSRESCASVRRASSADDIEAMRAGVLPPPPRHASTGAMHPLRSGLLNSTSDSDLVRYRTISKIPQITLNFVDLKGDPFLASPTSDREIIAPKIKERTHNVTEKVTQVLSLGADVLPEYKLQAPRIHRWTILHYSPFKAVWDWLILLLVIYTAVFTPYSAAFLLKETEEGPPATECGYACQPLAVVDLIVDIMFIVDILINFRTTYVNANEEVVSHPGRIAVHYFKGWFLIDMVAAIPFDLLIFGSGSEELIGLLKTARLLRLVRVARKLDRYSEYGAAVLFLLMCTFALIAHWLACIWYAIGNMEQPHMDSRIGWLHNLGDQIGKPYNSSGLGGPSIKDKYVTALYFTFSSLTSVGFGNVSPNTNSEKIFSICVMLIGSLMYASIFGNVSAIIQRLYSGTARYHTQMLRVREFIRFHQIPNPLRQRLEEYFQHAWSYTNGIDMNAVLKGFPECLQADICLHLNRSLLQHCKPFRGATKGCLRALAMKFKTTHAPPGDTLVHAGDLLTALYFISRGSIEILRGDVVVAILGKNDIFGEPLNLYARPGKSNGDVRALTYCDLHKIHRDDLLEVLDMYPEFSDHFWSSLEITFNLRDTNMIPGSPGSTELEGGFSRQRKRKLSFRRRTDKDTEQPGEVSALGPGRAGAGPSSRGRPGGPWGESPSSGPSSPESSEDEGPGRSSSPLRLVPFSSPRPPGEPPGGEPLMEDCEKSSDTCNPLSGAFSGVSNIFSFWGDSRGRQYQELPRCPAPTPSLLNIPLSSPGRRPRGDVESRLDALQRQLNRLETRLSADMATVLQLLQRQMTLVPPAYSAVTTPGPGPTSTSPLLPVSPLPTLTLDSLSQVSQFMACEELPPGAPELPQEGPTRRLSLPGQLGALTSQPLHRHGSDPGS
Data set [3] can be described thus: Chromatographic hydrophobicity index, log D of the compound at pH 7.4 by reverse-phase HPLC analysis. In kind it is physicochemical. The settings on record: buffer.
Data set [4] has as its target cAMP and cAMP-inhibited cGMP 3',5'-cyclic phosphodiesterase 10A (Homo sapiens, UniProt Q9Y233). The data set can be described thus: Inhibition of human N-terminal FLAG-tagged PDE10A (1 to 90 residues) expressed in using African green monkey COS7 cells using [3H]cAMP or [3H]cGMP as substrate preincubated for 5 mins followed by substrate addition and measured after 30 mins by liquid scintillation counting method.

Data set [5] in a line: Oral bioavailability in Wistar rat at 3 mg/kg. Format: ADME, organism-based. The settings on record: in vivo.
The subject of a further data set is Rattus norvegicus. The data set can be described thus: Antipsychotic activity in po dosed Wistar rat assessed as inhibition of electric stimulation-induced conditioned avoidance responses measured up to 6 days. Format: functional. The settings on record: 144 h, read-out: ID50 (the source's name).
Data set [6] deals with cGMP-specific 3',5'-cyclic phosphodiesterase (Homo sapiens, UniProt O76074). The data set is described as follows: Inhibition of PDE5A (unknown origin).
For a further data set, the target named is Phosphodiesterase 4 (Homo sapiens, UniProt P27815+Q08499+Q07343+Q08493). The data set is described as follows: Inhibition of PDE4 (unknown origin). In kind it is protein assay.
A short description of data set [7]: Unbound brain-to-plasma concentration ratio in Wistar rat at 3 mg/kg, po. In kind it is ADME, organism-based.
Data set [8] can be described thus: Clearance in Wistar rat at 0.3 mg/kg, iv. The settings on record: in vivo.
Another data set has as its target Phosphodiesterase 6. The data set is described as follows: Inhibition of PDE6 (unknown origin). Format: protein assay, Homo sapiens.
A short description of data set [9]: Volume of distribution at steady state in Wistar rat at 0.3 mg/kg, iv. The settings on record: in vivo.
A short description of data set [10]: Half life in Wistar rat at 0.3 mg/kg, iv. As to conditions: in vivo. In kind it is ADME, organism-based.
Data set [11] is described as follows: Ratio of IC50 for PDE4 (unknown origin) to IC50 for bovine corpus striatum PDE10A.
Data set [12] is described as follows: Ratio of IC50 for PDE7B (unknown origin) to IC50 for bovine corpus striatum PDE10A.
A short description of data set [13]: Ratio of IC50 for PDE5A (unknown origin) to IC50 for bovine corpus striatum PDE10A.
Data set [14] is described as follows: Ratio of IC50 for PDE8A (unknown origin) to IC50 for bovine corpus striatum PDE10A.
Data set [15] is described as follows: Ratio of IC50 for PDE3A (unknown origin) to IC50 for bovine corpus striatum PDE10A.
Data set [16] is described as follows: Ratio of IC50 for PDE1 (unknown origin) to IC50 for bovine corpus striatum PDE10A.
Data set [17] can be described thus: Intrinsic clearance in human liver microsomes. Format: ADME, Microsome. As to conditions: read-out: CLH. In general terms: Microsomes from liver hold many membrane-bound enzymes, among them those of drug oxidation.
A short description of data set [18]: Ratio of IC50 for PDE2A (unknown origin) to IC50 for bovine corpus striatum PDE10A.
Data set [19] is described as follows: Ratio of IC50 for PDE6 (unknown origin) to IC50 for bovine corpus striatum PDE10A.
Data set [20] can be described thus: Ratio of IC50 for PDE9A (unknown origin) to IC50 for bovine corpus striatum PDE10A.
Data set [21] is described as follows: Ratio of IC50 for PDE11A (unknown origin) to IC50 for bovine corpus striatum PDE10A.

Converted amounts (≈) assume the structure as drawn.

Chain of cAMP and cAMP-inhibited cGMP 3',5'-cyclic phosphodiesterase 10A (Q9Y233 whole entry, the tested form may be a part): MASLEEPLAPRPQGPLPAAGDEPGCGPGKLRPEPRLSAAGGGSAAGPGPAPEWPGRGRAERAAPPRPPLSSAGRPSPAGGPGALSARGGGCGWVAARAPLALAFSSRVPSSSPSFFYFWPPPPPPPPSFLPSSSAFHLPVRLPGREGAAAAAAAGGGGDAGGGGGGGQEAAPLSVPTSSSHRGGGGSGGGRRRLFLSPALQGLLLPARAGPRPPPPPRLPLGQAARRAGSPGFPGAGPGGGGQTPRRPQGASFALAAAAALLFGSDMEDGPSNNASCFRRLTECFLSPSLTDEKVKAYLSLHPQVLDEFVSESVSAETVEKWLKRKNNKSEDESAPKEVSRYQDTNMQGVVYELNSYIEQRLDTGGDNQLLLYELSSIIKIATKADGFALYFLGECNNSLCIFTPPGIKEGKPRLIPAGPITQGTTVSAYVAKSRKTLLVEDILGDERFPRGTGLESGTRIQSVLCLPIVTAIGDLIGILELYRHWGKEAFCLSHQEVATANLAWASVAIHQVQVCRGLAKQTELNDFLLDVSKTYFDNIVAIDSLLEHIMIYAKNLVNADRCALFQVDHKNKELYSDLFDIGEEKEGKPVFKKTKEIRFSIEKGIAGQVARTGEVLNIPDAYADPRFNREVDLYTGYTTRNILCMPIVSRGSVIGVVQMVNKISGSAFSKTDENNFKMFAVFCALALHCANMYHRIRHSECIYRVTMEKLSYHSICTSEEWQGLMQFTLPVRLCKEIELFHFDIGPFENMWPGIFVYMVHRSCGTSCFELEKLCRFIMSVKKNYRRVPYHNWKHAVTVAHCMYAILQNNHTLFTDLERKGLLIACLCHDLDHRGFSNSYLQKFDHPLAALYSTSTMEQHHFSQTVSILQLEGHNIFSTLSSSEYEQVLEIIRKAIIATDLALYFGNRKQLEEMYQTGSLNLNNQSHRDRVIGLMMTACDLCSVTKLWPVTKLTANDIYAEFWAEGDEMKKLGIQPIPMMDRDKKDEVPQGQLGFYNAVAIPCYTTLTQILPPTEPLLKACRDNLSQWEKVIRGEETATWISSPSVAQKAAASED

On to `Cc1ccc2nc(C)c(-c3cc4nc(N5CCCC5)cc(N[C@H]5CC[C@](C)(O)CC5)n4n3)nc2c1.Cl`, for which the half-inhibitory concentration (IC50) (commonly the point on the concentration scale where inhibition reaches its midpoint) in data set [1] worked out at 0.036 nM. The solubility (as a rule, the dissolved amount per volume that the medium holds) in data set [2] stood at 62 µg/mL. The inhibition (usually the change of the read-out against control, counted positive when it falls) at 1 µM on hERG (KCNH2) was found to be 29%. The compound further showed a CHI in data set [3] of 3.29.
As to `Cc1nc2ccccc2nc1-c1cc2nc(N3CCCC3)cc(NC3CCOCC3)n2n1`, half-maximal inhibition in data set [1] (IC50) required 0.15 nM. The same compound gave a solubility in data set [2] of 8.1 µg/mL (≈ 18.9 µM). On hERG (KCNH2), this compound gave an inhibition at 1 µM of 63%.
On to `Cc1ccc2nc(C)c(-c3cc4nc(N5CCCC5)cc(NC5CCOCC5)n4n3)nc2c1.Cl`, for which the 50% inhibitory concentration (IC50) in data set [1] is 0.09 nM. Moreover, the solubility in [2] is over 1000 µg/mL. Moreover, testing at 1 µM on hERG (KCNH2) gave an inhibition of 64%. The same compound had a CHI in data set [3] of 3.4.
Regarding `Cc1nc2c(C)cccc2nc1-c1cc2nc(N3CCCC3)cc(NC3CCOCC3)n2n1.Cl`, the 50% inhibitory concentration (IC50) in data set [1] was 0.78 nM. The compound further registered a solubility in data set [2] of 32 µg/mL. The compound further gave an inhibition at 1 µM against hERG (KCNH2) of 94%.
On to `Cc1nc2cccc(C)c2nc1-c1cc2nc(N3CCCC3)cc(NC3CCOCC3)n2n1.Cl`, for which the IC50 in data set [1] came to 0.02 nM. The concentration in solution in data set [2] (solubility) was 121 µg/mL. This compound had an inhibition at 1 µM at hERG (KCNH2) of 99%.
With `Cc1nc2ccccc2nc1-c1nc2nc(N3CCCC3)cc(NC3CCOCC3)n2n1`, it took 6 nM to reach half-maximal inhibition in [1] (IC50).
Turning to `Cc1nc2ccc(F)cc2nc1-c1cc2nc(N3CC[C@@H](F)C3)cc(NCC(C)(C)O)n2n1.Cl`, the IC50 came out at 0.062 nM in data set [4]; 0.09 nM in data set [1]; 437 nM in data set [6]; 289 nM at Phosphodiesterase 4; 561 nM against Phosphodiesterase 6. For the same compound, the bioavailability – broadly, dose-corrected exposure relative to a reference, in per cent – in [5] was found to be 43.7%. The ED50 in the data set on Rattus norvegicus was found to be 0.32 mg/kg. In data set [2], the solubility was found to be 118 µg/mL. In addition, the “K(p,uu,brain)” value in [7] (brain) was 0.5. Further, 1 µM produced 23% inhibition on hERG (KCNH2). The CL in [8] worked out at 8.77 mL/min/kg. Further, the Vdss – broadly, a proportionality between amount in the body and measured concentration, not a real space – in [9] was determined as 2.307 L/kg. The same compound came in with a CHI in data set [3] of 2.79. In addition, in data set [10], the half-life – broadly, how long it takes for the measured level to halve – is 3.09 h.
Compound `Cc1nc2ccccc2nc1-c1cn2c(NC3CCOCC3)cc(N3CCCC3)nc2n1` gave a 50% inhibitory concentration (IC50) in [1] of 71 nM.
For the compound `Cc1nc2ccccc2nc1-c1cc2nc(N3CC[C@@H](F)C3)cc(N(C)C3CCOCC3)n2n1.Cl`, the IC50 in [4] was determined as 0.061 nM. This compound also had a bioavailability in data set [5] of 19.2%. Besides, the Ratio IC50 in data set [11], in [12], in data set [13], in data set [14], in data set [15] and in data set [16] was over 1000 each time. Moreover, the Ratio IC50 in data set [18], in data set [19], in [20] and in data set [21] was over 1000 throughout. Also, in data set [2], the solubility worked out at 4.8 µg/mL. The microsomal CLint in [17] was 127 µL/min/mg. Also, the Kp uu in [7] (Wistar, brain and plasma, read-out: K(p,uu,brain)) is 0.61. For the same compound, the half-life in data set [10] is 3.2 h.
In turn, `Cc1nc2ccc(F)cc2nc1-c1cc2nc(N3CCCC3)cc(N[C@H]3CC[C@](C)(O)CC3)n2n1.Cl` displayed an IC50 in data set [1] of 0.0088 nM. This compound also had a solubility in [2] of 15 µg/mL. Moreover, the inhibition at 1 µM against hERG (KCNH2) came to 12%. Besides, in [3], the CHI is 3.23.
In turn, `Cc1ccc2nc(C)c(-c3cc4nc(N5CCCC5)cc(N[C@H]5CC[C@H](O)CC5)n4n3)nc2c1.Cl` came in with an IC50 in data set [1] of 0.033 nM. In [2], this compound displayed a solubility of 19 µg/mL.
In [1], `Cc1nc2ccccc2nc1-c1cn2nc(N3CCCC3)cc(NC3CCOCC3)c2n1` returned an IC50 of 0.41 nM.
`Cc1ccc2nc(-c3cc4nc(N5CCCC5)cc(NC5CCOCC5)n4n3)c(C)nc2c1.Cl`: half-maximal inhibition in [1] (IC50) was put at 0.46 nM. The amount in solution in data set [2] (solubility) came to 17 µg/mL. The same compound displayed an inhibition at 1 µM against hERG (KCNH2) of 80%.
For `Cc1nc2ccc(F)cc2nc1/C=C/c1nc(NC2CCOCC2)cc(N2CCCC2)n1`, the IC50 in [1] was determined as 0.14 nM.
In data set [1], `CO[C@H]1CC[C@H](Nc2cc(N3CCCC3)nc3cc(-c4nc5cc(C)ccc5nc4C)nn23)CC1.Cl` yielded an IC50 of 0.08 nM. For the same compound, the solubility in data set [2] was 5.1 µg/mL. The inhibition at 1 µM at hERG (KCNH2) came to 40%. Further, the CHI in data set [3] stood at 4.1.
For `Cc1nc2ccc(F)cc2nc1-c1cc2nc(N3CCCC3)cc(NCC(C)(C)O)n2n1.Cl`, in that order: 0.0081 nM, 8.7 µg/mL, 50% and 3.07.

Values taken from ChEMBL document CHEMBL4346730 (Bioorg Med Chem, 2019).
